Results published in publication PMC7339578, “Multiple circulating alkaloids and saponins from intravenous Kang-Ai injection inhibit human cytochrome P450 and UDP-glucuronosyltransferase isozymes: potential drug–drug interactions” (Chinese Medicine, 2020).
“And” between values parts separate entries of the source, which are not always exact repeats. Identical values can stand only once.

Columns and labels:
[1] = target: T1, CYP2C8 (Homo sapiens, UniProt P10632); test: Inhibition of recombinant CYP2C8 (probe paclitaxel); type: in vitro ADME; settings: recombinant isozyme; mean ± SD of triplicate; unit not given (IC50 classes in μM); read-out: IC50 towards CYP2C8
T1 sequence (P10632 1-490): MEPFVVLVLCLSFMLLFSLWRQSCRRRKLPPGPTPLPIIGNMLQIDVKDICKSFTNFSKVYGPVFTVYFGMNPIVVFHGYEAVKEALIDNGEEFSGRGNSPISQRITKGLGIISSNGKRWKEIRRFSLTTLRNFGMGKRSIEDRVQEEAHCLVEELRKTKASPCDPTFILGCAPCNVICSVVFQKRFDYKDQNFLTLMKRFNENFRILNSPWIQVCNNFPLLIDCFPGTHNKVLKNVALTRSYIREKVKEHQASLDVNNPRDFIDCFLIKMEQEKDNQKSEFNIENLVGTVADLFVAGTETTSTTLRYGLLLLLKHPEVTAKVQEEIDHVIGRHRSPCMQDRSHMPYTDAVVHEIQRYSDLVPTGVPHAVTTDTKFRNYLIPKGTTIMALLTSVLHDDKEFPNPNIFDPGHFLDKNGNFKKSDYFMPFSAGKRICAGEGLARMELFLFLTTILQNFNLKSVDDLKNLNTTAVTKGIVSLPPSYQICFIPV
Procedure: (§1) In this study, phenacetin (100 μM), coumarin (100 μM), bupropion (100 μM), paclitaxel (60 μM), tolbutamide (200 μM), mephenytoin (100 μM), chlorzoxazone (200 μM) and nifedipine (40 μM) have been used as the probe substrates for CYP1A2, 2A6, 2B6, 2C8, 2C9, 2C19, 2E1 and 3A4, respectively.

[2] = Urinary (renal) excretion in rats after a 30-min infusion of Kang-Ai injection; type: in vivo, Sprague–Dawley rats; settings: Kang-Ai injection 6 mL/kg iv
In short: (§2)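 Urine collected in metabolic cages at 0–4, 4–8, 8–12 h and bile at 0–3, 3–6, 6–9, 9–12 h after infusion start, weighed and frozen at −80 °C. Non-compartmental analysis; CLR and CLB as cumulative urinary or biliary amount divided by plasma AUC0-∞, fe-U and fe-B as cumulative amount/dose; mean ± SD (n = 3).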

[3] = Stability tests of analytes in rat plasma QC samples; type: in vitro ADME; settings: rat plasma
Procedure: […] The dilution integrity was investigated by analyzing six replicate samples with each analyte, and each analyte were diluted 10-fold with blank rat matrix. Furthermore, the diluted samples were analyzed using freshly prepared calibration curve to calculate RE and RSD, which should be no more than ± 15% as criterion.

[4] = target: CYP2C9 (Homo sapiens, UniProt P11712); test: Inhibition of recombinant CYP2C9 (probe tolbutamide); type: in vitro ADME; settings: recombinant isozyme; mean ± SD of triplicate; unit not given (IC50 classes in μM); read-out: IC50 towards CYP2C9
Procedure: as §1

[5] = Plasma pharmacokinetics in rats after a 30-min intravenous infusion of Kang-Ai injection; type: in vivo, Sprague–Dawley rats; settings: male, Sprague-Dawley, 30-min iv infusion of Kang-Ai injection 6 mL/kg
In short: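 Fasted male Sprague–Dawley rats (250 ± 20 g) got a single 30-min tail-vein infusion of Kang-Ai injection at 6 mL/kg. Jugular blood was sampled from 5 min to 12 h for plasma. Parameters came from non-compartmental analysis (trapezoidal AUC), n = 3.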

[6] = Biliary (hepatobiliary) excretion in rats after a 30-min infusion of Kang-Ai injection; type: in vivo, Sprague–Dawley rats; settings: rat bile 0–12 h; Kang-Ai injection 6 mL/kg iv
In short: as §2

Chain of CYP2C9 (P11712 whole entry): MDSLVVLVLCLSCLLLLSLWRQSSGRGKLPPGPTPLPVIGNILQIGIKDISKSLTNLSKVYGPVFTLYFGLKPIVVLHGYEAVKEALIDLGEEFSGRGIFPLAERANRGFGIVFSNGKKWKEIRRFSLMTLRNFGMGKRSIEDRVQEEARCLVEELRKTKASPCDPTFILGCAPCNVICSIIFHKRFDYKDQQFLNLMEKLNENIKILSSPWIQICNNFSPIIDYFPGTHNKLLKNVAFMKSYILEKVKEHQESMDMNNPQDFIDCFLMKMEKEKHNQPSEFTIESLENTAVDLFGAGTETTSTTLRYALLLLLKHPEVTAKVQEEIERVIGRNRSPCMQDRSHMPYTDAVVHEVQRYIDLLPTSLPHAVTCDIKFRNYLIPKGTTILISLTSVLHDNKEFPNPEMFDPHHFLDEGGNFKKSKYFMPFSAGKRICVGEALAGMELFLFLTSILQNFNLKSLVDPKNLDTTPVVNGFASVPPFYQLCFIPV

IC50 [1]: > 100 µM | CL renal ([2]; male, Sprague-Dawley, urine and plasma, rat, read-out: CLR (renal excretory clearance) (converted)): 0.0185 mL/min | fe-U,0–12h (fraction of dose excreted into urine) ([2]; rat urine 0–12 h): 19.00 ± 5.33% | fraction of dose excreted unchanged via renal plus hepatobiliary excretion (sum of fe-U and fe-B) ([2]; rat urine + bile, 0–12 h): about 25% | At -80 °C for 48 h, Mean±SD ([3]; nominal conc. 20 nM): 20.86 ± 2.70 nM | At -80 °C for 48 h, RE ([3]; nominal conc. 20 nM): 13.40% | Extracted samples at 8 °C for 18 h, Mean±SD ([3]; nominal conc. 20 nM): 21.52 ± 1.04 nM | Extracted samples at 8 °C for 18 h, RE ([3]; nominal conc. 20 nM): 11.29% | Short-term stability at room temperature for 6 h, Mean±SD ([3]; nominal conc. 20 nM): 20.41 ± 1.88 nM | Short-term stability at room temperature for 6 h, RE ([3]; nominal conc. 20 nM): -8.78% | Three freeze-thaw cycles (-80 °C ↔ 23 °C), Mean±SD ([3]; nominal conc. 20 nM): 21.38 ± 0.85 nM | Three freeze-thaw cycles (-80 °C ↔ 23 °C), RE ([3]; nominal conc. 20 nM): 11.74% | At -80 °C for 48 h, Mean±SD ([3]; nominal conc. 100 nM): 94.76 ± 3.45 nM | At -80 °C for 48 h, RE ([3]; nominal conc. 100 nM): -9.18% | Extracted samples at 8 °C for 18 h, Mean±SD ([3]; nominal conc. 100 nM): 93.92 ± 4.07 nM | Extracted samples at 8 °C for 18 h, RE ([3]; nominal conc. 100 nM): -9.39% | Short-term stability at room temperature for 6 h, Mean±SD ([3]; nominal conc. 100 nM): 96.61 ± 5.06 nM | Short-term stability at room temperature for 6 h, RE ([3]; nominal conc. 100 nM): -8.93% | Three freeze-thaw cycles (-80 °C ↔ 23 °C), Mean±SD ([3]; nominal conc. 100 nM): 101.66 ± 11.99 nM | Three freeze-thaw cycles (-80 °C ↔ 23 °C), RE ([3]; nominal conc. 100 nM): 13.24% | At -80 °C for 48 h, Mean±SD ([3]; nominal conc. 400 nM): 419.98 ± 19.52 nM | At -80 °C for 48 h, RE ([3]; nominal conc. 400 nM): 10.54% | Extracted samples at 8 °C for 18 h, Mean±SD ([3]; nominal conc. 400 nM): 411.97 ± 35.80 nM | Extracted samples at 8 °C for 18 h, RE ([3]; nominal conc. 400 nM): 9.32% | Short-term stability at room temperature for 6 h, Mean±SD ([3]; nominal conc. 400 nM): 362.78 ± 5.91 nM | Short-term stability at room temperature for 6 h, RE ([3]; nominal conc. 400 nM): -10.80% | Three freeze-thaw cycles (-80 °C ↔ 23 °C), Mean±SD ([3]; nominal conc. 400 nM): 397.28 ± 35.89 nM | Three freeze-thaw cycles (-80 °C ↔ 23 °C), RE ([3]; nominal conc. 400 nM): 9.66% | IC50 [4]: > 100 µM | Vd ([5]; plasma, rat, Table 1 unit): 0.0357 ± 0.0114 L/kg | clearance ([5]; plasma, rat, Table 1 unit, read-out: CLtot, p (converted)): 0.0972 mL/min | Cmax ([5]; rat plasma, read-out: Cmax): 766 ± 57.9 nM | half-life ([5]; rat plasma, read-out: t1/2 (converted)): 5.84 ± 3.13 h | fe-B,0–12h (fraction of dose excreted into bile) [6]: 5.55% and 5.55 ± 1.02%
SMILES: CC(C)=CCC[C@](C)(O[C@@H]1O[C@H](CO)[C@@H](O)[C@H](O)[C@H]1O)[C@H]1CC[C@]2(C)[C@@H]1[C@H](O)C[C@@H]1[C@@]3(C)CC[C@H](O[C@@H]4O[C@H](CO)[C@@H](O)[C@H](O)[C@H]4O[C@@H]4O[C@H](CO)[C@@H](O)[C@H](O)[C@H]4O)C(C)(C)[C@@H]3CC[C@]12C [Compound D2, Ginsenoside Rd]
